Structures can show the parent of a compound that is named as a salt. Where two headings read alike, the source gives them in different places.
Legend:
V79 cells = assay: In vitro radiosensitizing activity at 37°: shoulder modifying effects (reduction in Dq); assay type: cell-based; conditions: for Shoulder Modification (% Reduction in DQ): hypoxic V79 cells, class symbols
Method: The shoulder region represents the inherent repair capabilities of a given cell line. […] To determine the hypoxic x-ray dose response, cells are rendered hypoxic four hours prior to the addition of the test compound by placing them in a 37° C. incubator within an anaerobic glove chamber (Forma). […] Drug is added (0.1 ml into 2 ml media in petri dish) within the anaerobic chamber and drug treatment is at the highest nontoxic dose for one hour at 37°. The oxic x-ray dose response is determined in a similar manner except that all manipulations are carried out in air. […] Cytotoxicity controls (drug only, no irradiation) are included as well as oxic and hypoxic untreated controls (irradiation only, no drug). Immediately following irradiation, cells are rinsed twice with 2 ml fresh media prior to the addition of 5 ml of fresh media. The cells are then incubated at 37° C. After six days, dishes are stained with crystal violet and colonies of 50 or more cells are counted to determine percent surviving cells versus x-ray dose. […] This is expressed by percent reduction in Dq where Dq is defined as the dose at the intersection of the regression line for the logarithmic portion of the survival curve with the 100% survival level. This is taken to represent the width of the shoulder region of the survival curve.

L1210 cells = assay: Inhibition of the repair of radiation-induced DNA damage as assessed by alkaline elution; assay type: cell-based
Method: Inhibition of the Repair of Radiation-Induced DNA Damage as Assessed by Alkaline Elution The basic alkaline elution assay is carried out according to the procedure of K. W. Kohn, […]. Erickson, and L. A. Zwelling in DNA Repair: A Laboratory Manual of Research Procedures (eds. E. C. Freidburg and […]) with slight modifications. Briefly, suspension cultures of exponentially growing L1210 cells (total of 4×10^6 cells) are labeled with 0.02 μCi/ml of [^14 C] thymidine plus 1 nmol/ml of unlabeled thymidine for 24 hours prior to use. L1210 cells used as an internal standard are grown in media supplemented with 0.1 μCi/ml of [^3 H]thymidine and 1 nmol/ml unlabeled thymidine. For the elution protocol cells are removed from the culture flasks, centrifuged, and resuspended in fresh media. Drug treatment for experimental cells is for one hour at 37°. After the treatment period control and drug-treated cells are given a dose of 10 Gy of x-rays and incubated at 37° C. for 10 minutes to allow for repair. Samples consisting of 5×10^5 cells contained in 5 ml of ice cold PBS are deposited directly on 25 mm polycarbonate filters (2 micron pore size). The cells are washed with 5 ml of cold PBS, then lysed by the addition of 5 ml of lysis solution (0.2% SDS, 0.25M tetrasodium EDTA pH 9.7). All procedures commencing at the time of lysis are carried out in the dark. Subsequent to lysis samples are treated with 2 ml of lysis solution containing proteinase-K (0.5 mg/ml) for one hour. The filters are then eluted with tetrapropyl ammonium hydroxide/0.025M EDTA (free acid form)/0.1% SDS, pH 12.1, at a constant flow rate of 0.037 ml/min. Fractions of 2 ml are collected in scintillation vials. […] To each fraction collected and the filter solution 15 ml of modified Ready-Gel scintillation fluid containing 0.7% acetic acid is added. The frequency of single-stranded DNA breakage was calculated as described by Kohn, et al. The data is corrected for the number of single-strand breaks in the […] samples (~20%).

[1] = target: T1, Poly(ADP-ribose) synthetase (Bos taurus, UniProt P18493); assay: Inhibition of Poly(ADP-ribose) synthetase; assay type: biochemical, calf
T1 construct: Poly (ADP-ribose) synthetase from calf thymus; from tissue; host or cells: calf thymus
T1 sequence (P18493 whole entry): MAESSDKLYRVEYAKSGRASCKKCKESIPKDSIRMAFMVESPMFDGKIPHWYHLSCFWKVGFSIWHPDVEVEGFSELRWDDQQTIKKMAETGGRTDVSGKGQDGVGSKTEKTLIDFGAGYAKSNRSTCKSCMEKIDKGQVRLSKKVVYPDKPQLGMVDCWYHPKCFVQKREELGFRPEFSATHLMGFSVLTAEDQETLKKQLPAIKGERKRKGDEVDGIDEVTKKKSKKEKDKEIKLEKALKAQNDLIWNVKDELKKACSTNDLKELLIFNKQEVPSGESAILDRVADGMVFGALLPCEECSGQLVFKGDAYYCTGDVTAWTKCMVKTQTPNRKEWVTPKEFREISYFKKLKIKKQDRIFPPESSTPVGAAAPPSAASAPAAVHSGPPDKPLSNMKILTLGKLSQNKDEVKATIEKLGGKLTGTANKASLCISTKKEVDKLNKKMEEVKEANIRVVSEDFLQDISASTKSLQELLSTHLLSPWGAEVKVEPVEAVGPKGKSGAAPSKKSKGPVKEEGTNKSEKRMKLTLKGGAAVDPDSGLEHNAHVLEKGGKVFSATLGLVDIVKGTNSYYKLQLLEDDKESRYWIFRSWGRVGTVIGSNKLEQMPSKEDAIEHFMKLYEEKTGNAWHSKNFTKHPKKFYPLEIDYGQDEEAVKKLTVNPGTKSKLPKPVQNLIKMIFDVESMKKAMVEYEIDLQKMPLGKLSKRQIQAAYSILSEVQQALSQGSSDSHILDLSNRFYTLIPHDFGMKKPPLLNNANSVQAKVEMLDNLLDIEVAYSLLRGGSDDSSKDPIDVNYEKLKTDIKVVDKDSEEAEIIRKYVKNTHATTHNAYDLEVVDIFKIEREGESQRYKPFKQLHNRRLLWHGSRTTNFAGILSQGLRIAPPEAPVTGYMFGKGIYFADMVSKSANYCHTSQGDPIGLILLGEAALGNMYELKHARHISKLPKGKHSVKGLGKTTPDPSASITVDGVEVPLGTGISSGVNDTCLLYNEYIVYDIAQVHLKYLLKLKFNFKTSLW
Method: The enzyme assay is performed by placing the following in small glass tubes kept at 4°: 100 μl of buffer consisting of 0.5M Tris-HCl pH 8.0, 50 mM MgCl2, and 5 mM dithiothreitol; 50 μl of 1 mM [^3 H]nicotinamide adenine dinucleotide having a specific activity of 15 μCi/μmol; 100 μl of calf thymus DNA (0.3 mg/ml in water); 50 μl of calf thymus histone (Sigma, Type IIA, 0.5 mg/ml); 50 μl of inhibitor or inhibitor solvent; 150 μl of enzyme. The components are thoroughly mixed and warmed to 30° C. in a water bath. After 15 minutes the reaction is stopped by adding 2 ml of ice cold 15% trichloroacetic acid and the tubes are placed on ice for 15 minutes. The precipitate is collected on glass fiber filters and washed five times with ice cold 15% trichloroacetic acid. The filters were dried and radioactivity determined in a liquid scintillation counter.

KHT fibrosarcoma tumors = assay: In vivo assay for radiosensitization activity; parameters: species or system hybrid mice (B6C3F1); conditions: for In Vivo Radiosensitizing Activity: KHT tumors in mice, relative to misonidazole
Method: In Vivo Assay for Radiosensitization Activity
For this assay KHT fibrosarcoma tumors in hybrid mice (B6C3F1) weighing 20-25 g are used. The mice are randomized and implanted SC with the appropriate tumor brei on Day 0 (one implant/mouse). Samples from each donor tumor and/or from the final brei are incubated in thioglycolate media as a check for gross bacterial contamination. On Day 8 tumors are measured in two dimensions with calipers and animals with tumor masses in the range of 500 to 700 mg are selected for the assay. At this point the tumors contain approximately 20% hypoxic cells.
The test agents are dissolved in any of several vehicles at a fixed injection dose equal to 90-100% of the maximum tolerated dose. Additional suitable controls of test compound (no irradiation) and vehicle-injected and irradiated mice are also included. Mice are irradiated at a dose of 1700 RADs at various intervals both prior to and after intraperitoneal administration of the test agents.
By using these intervals, an indication of both the optimum time to irradiate and the degree of sensitization are obtained. Irradiation of the KHT tumors is by whole body irradiation of animals in movement restricting jigs at different total exposures as indicated. The x-ray source is a Phillips 320 KV instrument with a half-value thickness of 2.0 mm copper and a target to source distance of 17 inches, with a delivery rate of 2.0 Gy/minute. Animals are monitored for signs of acute toxicity after treatment.
After incubation for 12-16 days at 37° and staining, the colonies are counted. The data are expressed as % control versus time.

[2] = L1210 cells, 10 Gy x-rays, class symbols
[3] = 30° C., 15 minutes, [3H]NAD, read-out: IC50

IC50 [1, 3] | Structure (SMILES) | also measured
– | Cc1cccc2c1CCNC2=O [Example XII, 3,4-Dihydro-5-methyl-1(2H)-isoquinolinone] | Shoulder Modification (% Reduction in DQ) (V79 cells): ++ (30-44%); % Reduction in Dq (37°) (V79 cells; numeric): 30%; Frequency of Unrepaired Strand Breaks (L1210 cells; [2]): ++++ (401-500); Frequency of Unrepaired Strand Breaks (L1210 cells; numeric): 470 Rad. Eq.; IC50 [1]: 0.16 µM; In Vivo Radiosensitizing Activity (KHT fibrosarcoma tumors): +; Enhancement Ratio (in vivo) (KHT fibrosarcoma tumors; in vivo): 1.4-1.5; Optimum time preirradiation (KHT fibrosarcoma tumors; time of administration before irradiation): 2 to 3 h
1 µM | CCc1cccc2c1CCNC2=O [XV, 5-Ethyl-3,4-dihydro-1(2H)-isoquinolinone] | Shoulder Modification (% Reduction in DQ) (V79 cells): - (1-14%); Frequency of Unrepaired Strand Breaks (L1210 cells; [2]): + (101-200)
0.061 µM | O=c1[nH]cc(Br)c2c(O)cccc12 [Example XXVI, 4-Bromo-5-hydroxy-1(2H)-isoquinolinone] | –
56.7 µM | CC(=O)Nc1cccc2c1CCNC2=O [Example XI, N-(1,2,3,4-Tetrahydro-1-oxo-5-isoquinolinyl)acetamide] | –
0.24 µM | Nc1cccc2c(=O)[nH]ccc12 [Example VIII, 5-Amino-1(2H)-isoquinolinone] | Shoulder Modification (% Reduction in DQ) (V79 cells): - (1-14%)
2.12 µM | COc1cccc2c(=O)[nH]c(-c3ccccc3)cc12 [Example XX, 5-Methoxy-3-phenyl-1(2H)-isoquinolinone] | –
2.11 µM | CC(=O)Oc1cccc2c1CCNC2=O [Example VI, 5-(Acetyloxy)-3,4-dihydro-1(2H)-isoquinolinone] | –
0.08 µM | COc1cccc2c(=O)[nH]nc(C)c12 [XLII, 5-Methoxy-4-methyl-1(2H)phthalazinone] | –
1.5 µM | O=C1NCCc2c(OCC(O)CN3CCOCC3)cccc21 (stereo not shown) [XXIX] | –
0.33 µM | CNCCCOc1cccc2c1CCNC2=O [XXXII, 3,4-Dihydro-5-[3-methylamino)propoxy]-1(2H)-isoquinolinone hydrochloride] | –
0.77 µM | O=C1NCCc2c(OCC(O)CN3CCCC3)cccc21 (stereo not shown) [XXVIII, 3,4-Dihydro-5-[2-hydroxy-3-(1-pyrrolidinyl)propoxy]-1-(2H)-isoquinolinone] | –
0.6 µM | O=C1NCCc2c(OCCc3ccccc3)cccc21 [XLI, 3,4-Dihydro-5-(phenylethoxy)-1(2H)-isoquinolinone] | –
0.74 µM | Cc1cccc2c1CC(C)NC2=O (stereo not shown) [XVIII, 3,4-Dihydro-3,5-dimethyl-1(2H)-isoquinolinone] | –
2.55 µM | O=C1NCCc2c(NCc3ccccc3)cccc21 [Example X, 3,4-Dihydro-5-[(phenylmethyl)amino]-1(2H)-isoquinolinone] | –
0.34 µM | O=C1NCCc2c(OCC(O)Cc3ccccc3)cccc21 (stereo not shown) [Example XL, 3,4-Dihydro-5-(2-hydroxy-3-phenylpropoxy)-1(2H)-isoquinolinone] | –
0.14 µM | Oc1cccc2c(O)nccc12 [Example I, 1,5-Dihydroxyisoquinoline] | Shoulder Modification (% Reduction in DQ) (V79 cells): - (1-14%); Frequency of Unrepaired Strand Breaks (L1210 cells; [2]): + (101-200); In Vivo Radiosensitizing Activity (KHT fibrosarcoma tumors): +
0.41 µM | Cl.Nc1cccc2c1CCNC2=O [IX, 5-Amino-3,4-dihydro-1(2H)-isoquinolinone, monohydrochloride] | Shoulder Modification (% Reduction in DQ) (V79 cells): - (1-14%); Frequency of Unrepaired Strand Breaks (L1210 cells; [2]): +++ (301-400)
0.97 µM | CN(C)COc1cccc2c1CCNC2=O [XIII] | –
0.66 µM | Nc1c[nH]c(=O)c2ccccc12 [Example XXV, 4-Amino-1(2H)-isoquinolinone monohydrochloride] | –

IC50 [1, 3] | Structure (SMILES) | also measured
0.33 µM | O=C1NCCc2c(OC[C@H](O)CN3CCCCC3)cccc21 [XLIX, (R)-3,4-Dihydro-5-[2-hydroxy-3-(1-piperidinyl)propoxy]-1(2H)-isoquinolinone] | –
0.58 µM | COc1cccc2c(=O)[nH]ccc12 [XIV, 5-Methoxy-1(2H)-isoquinolinone] | –
0.31 µM | O=C1NCCc2c(Cl)cccc21 [XVI, 5-Chloro-3,4-dihydro-1(2H)-isoquinolinone] | –
0.27 µM | O=C1NCCc2c(OC[C@@H](O)CN3CCCCC3)cccc21 [L, (S)-3,4-Dihydro-5-[2-hydroxy-3-(1-piperidinyl)propoxy]-1(2H)-isoquinolinone] | –
0.65 µM | O=C1NCCc2c(OCC(O)COc3ccccc3)cccc21 (stereo not shown) [XXXIX, 3,4-Dihydro-5-(2-hydroxy-3-phenoxypropoxy)-1(2H)-isoquinolinone] | –
0.83 µM | O=C1NCCc2c(OCCCN3CCCCC3)cccc21 [Example XXVII, 3,4-Dihydro-5-[3-(1-piperidinyl)propoxy]-1(2H)-isoquinolinone] | –
0.42 µM | COc1cccc2c1CCNC2=O [Example V, 3,4-Dihydro-5-methoxy-1(2H)-isoquinolinone] | –
1.55 µM | CSC1=NCCc2c(C)cccc21 [XIX, 3,4-Dihydro-5-methyl-1-(methylthio)-isoquinoline] | –
0.82 µM | O=C1NCCc2c(OCCN3CCCCC3)cccc21 [XXXIII, 3,4-Dihydro-5-[2-(1-piperidinyl)ethoxy]-1(2H)-isoquinolinone] | –
0.2 µM | CNCC(O)COc1cccc2c1CCNC2=O (stereo not shown) [XXXI, 3,4-Dihydro-5-[2-hydroxy-3-(methylamino)propoxy]-1(2H)-isoquinolinone] | –
0.32 µM | O=C1NCCc2c(OCC(O)CN3CCCCC3)cccc21 (stereo not shown) [Example IV, 3,4-Dihydro-5-[2-hydroxy-3-(1-piperidinyl)propoxy]-1(2H)-isoquinolinone] | Shoulder Modification (% Reduction in DQ) (V79 cells): +++ (≥45%)
0.11 µM | CCCOc1cccc2c1CCNC2=O [XXXVI, 3,4-Dihydro-5-propoxy-1(2H)-isoquinolinone] | –
0.36 µM | Oc1ncc(Br)c2ccccc12 [XXIII, 4-Bromo-1-isoquinolinol] | –
1.5 µM | COCC(O)COc1cccc2c1CCNC2=O (stereo not shown) [XXXVIII, 3,4-Dihydro-5-(2-hydroxy-3-methoxypropoxy)-1(2H)-isoquinolinone] | –
– | O=C1NCCc2c(OCCCCN3CCCCC3)cccc21 [XXXIV, 3,4-Dihydro-5-[4-(1-piperidinyl)butoxy]-1(2H)-isoquinolinone] | IC50 [1]: 0.8 µM
2.6 µM | CCOc1cccc2c1CCNC2=O [XXXV, 5-Ethoxy-3,4-dihydro-1(2H)-isoquinolinone] | –
1 µM | CCN(CC)CC(O)COc1cccc2c1CCNC2=O (stereo not shown) [XXX] | –
5.2 µM | O=C1NCCc2c(OCc3ccccc3)cccc21 [Example VII, 3,4-Dihydro-5-(phenylmethoxy)-1(2H)-isoquinolinone] | –
0.58 µM | COc1cccc2c1CCN=C2SC [XVII, 3,4-Dihydro-5-methoxy-1-(methylthio)-isoquinoline] | –

Structure (SMILES) | IC50 [1, 3] | also measured
CCCCOc1cccc2c1CCNC2=O [XXXVII, 5-Butoxy-3,4-dihydro-1(2H)-isoquinolinone] | 6 µM | –

Source: US5177075A, “Substituted dihydroisoquinolinones and related compounds as potentiators of the lethal effects of radiation and certain chemotherapeutic agents; selected compounds, analogs and process” (priority 1991, dated 1993)
